Experimental data taken from patent US20040236125A1, “Novel structures and compositions comprising sterols and/or stanols and specific classes of anti-inflammatory agents and use thereof in treating or preventing cardiovascular disease, its underlying conditions including hyperlipidemia and other disorders having inflammation as part of their …” (FORBES MEDI-TECH INC., priority 2002, published 2004).
Where two headings read alike, the source gives them in different places.

What was measured:
COX-2 = COX-2 (Ovis aries, UniProt P79208); conditions: 4.5 μM, n=3
Chain of COX-2 (P79208 17-603): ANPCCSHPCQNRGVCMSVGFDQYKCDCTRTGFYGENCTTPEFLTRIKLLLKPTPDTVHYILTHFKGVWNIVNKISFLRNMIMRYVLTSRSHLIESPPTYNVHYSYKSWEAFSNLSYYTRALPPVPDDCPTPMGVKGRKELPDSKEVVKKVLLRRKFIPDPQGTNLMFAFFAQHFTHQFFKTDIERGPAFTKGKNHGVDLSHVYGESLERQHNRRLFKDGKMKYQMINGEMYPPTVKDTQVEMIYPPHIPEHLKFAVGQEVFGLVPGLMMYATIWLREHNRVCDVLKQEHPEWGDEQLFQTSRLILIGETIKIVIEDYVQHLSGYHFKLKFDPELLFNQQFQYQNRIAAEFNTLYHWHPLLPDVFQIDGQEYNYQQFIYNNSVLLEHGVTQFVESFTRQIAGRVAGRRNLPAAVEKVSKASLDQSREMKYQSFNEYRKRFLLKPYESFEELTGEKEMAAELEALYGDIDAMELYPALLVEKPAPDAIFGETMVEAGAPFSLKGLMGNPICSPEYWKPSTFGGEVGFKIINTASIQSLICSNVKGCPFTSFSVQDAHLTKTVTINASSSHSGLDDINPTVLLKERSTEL
Protocol: (§1) In summary, FDC-2-4 was treated with a 1:1 ratio of porcine pancreatic lipase and colipase (PL/C). Inhibition of cyclooxygenase was determined using a colorimetric (ovine) COX inhibitor screening assay. The conversion of arachidonic acid to prostaglandin H2 was monitored by a colorimetric reaction. […] Reaction was initiated by adding 100-μM arachidonic acid and 100-μM tetramethyl-p-phenylenediamine (TMPD—the colourimetric substrate). The optical density of the colored product was determined at 620 nm. Acetylsalicylate was used as a positive control in all experiments.
(§2) The solution was vortexed for 2 min. and sonicated for 5 min. before adding 2.5 mg porcine pancreatic lipase and 2.5 mg porcine colipase. The reaction was incubated at room temperature for 2 hours.
(§3) Inhibition was determined using a colorimetric (ovine) COX inhibitor screening assay (Cayman Chemicals). The conversion of arachidonic acid to prostaglandin H2 was monitored by a colorimetric reaction. COX was exposed to the inhibitors for 5 minutes. Reaction was initiated by adding 100-μM arachidonic acid and 100-μM tetramethyl-p-phenylenediamine (TMPD—the colourimetric substrate). The optical density of the colored product was determined at 620 nm 5 minutes after initiation. […] PL/C-treated FDC-2-4 was compared with non-PL/C-treated FDC-2-4 and control (no FDC-2-4 added) in determining COX inhibition. Acetylsalicylate (ASA), was used as a positive control in all experiments. Statistical Analysis on all treatment groups were done using ANOVA and Tukey Posthoc tests.

COX-1 = COX-1 (Ovis aries, UniProt P05979); conditions: 0.45 μM, n=3
Chain of COX-1 (P05979 25-600): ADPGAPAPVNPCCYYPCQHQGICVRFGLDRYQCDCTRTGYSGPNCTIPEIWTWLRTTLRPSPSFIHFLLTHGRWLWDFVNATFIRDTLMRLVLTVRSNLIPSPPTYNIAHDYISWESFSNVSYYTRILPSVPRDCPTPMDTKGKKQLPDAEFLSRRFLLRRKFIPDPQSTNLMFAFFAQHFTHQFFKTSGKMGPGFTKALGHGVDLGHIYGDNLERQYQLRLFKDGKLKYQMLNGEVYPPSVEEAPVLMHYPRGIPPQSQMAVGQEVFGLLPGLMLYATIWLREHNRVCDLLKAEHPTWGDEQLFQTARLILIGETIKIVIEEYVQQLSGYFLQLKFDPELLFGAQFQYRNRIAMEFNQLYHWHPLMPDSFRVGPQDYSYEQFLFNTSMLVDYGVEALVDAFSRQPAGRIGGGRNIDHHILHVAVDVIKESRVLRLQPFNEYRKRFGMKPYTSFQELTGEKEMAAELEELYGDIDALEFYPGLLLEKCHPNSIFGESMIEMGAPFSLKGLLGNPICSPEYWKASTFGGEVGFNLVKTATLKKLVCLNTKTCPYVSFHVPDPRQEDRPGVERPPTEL
Protocol: as §1, §2, §3

[1] = system: cholesterol absorption in the intestine; conditions: 20 mg/kg single-dose oral gavage in Intralipid 10% emulsion; blood 10 hours after gavage; FIG. 3
Protocol: Adult male Sprague Dawley rats (˜350 g) were maintained under a 12 h light (0700-1900)/dark cycle and supplied with a laboratory standard diet and water ad libitum prior to starting the experiment.
Both groups received a single-dose oral gavage at 0700. Blood collection was performed by cardiac puncture 10 hours after oral gavage. Animals were fasted after gavage. Access to water was permitted ad libitum during the experiment. Blood obtained by cardiac puncture was collected in EDTA-coated tubes and centrifuged. Plasma samples were analyzed for [3H] cholesterol by radioactivity.
Adult male Sprague Dawley rats were given one of the derivatives of the present invention in an oral formulation containing:
20 mg/kg sterol/stanol analogue
1 mg unlabeled cholesterol
25 μCi [3H] Cholesterol in an emulsion with Intralipid 10%.
Animals were fasted 12-16 hours before and 10 hours after the oral gavage was performed. Blood samples were collected by cardiac puncture 10 hours following oral gavage. Plasma samples obtained by centrifugation were analyzed for [3H] Cholesterol and results expressed as a percentage of inhibition of cholesterol absorption in the intestine.
In addition sodium hydroxide was added to adjust the pH so that the final product pH is 8.0; pH range is 6.0 to 8.9. […] Each animal received 20 mg/kg body weight test substance dissolved in water or other appropriate solvent. […]

[2] = PL/C-treated (pancreatic lipase/colipase)

Substance: acetoxyphytostanyl salicylate [FDC-2-4]
- inhibition of COX-2 (COX-2; [2]): 88%
- inhibition of COX-2 (COX-2; non-PL/C-treated): 64%
- inhibition of COX-1 activity (COX-1; [2]): 69%
- inhibition of COX-1 activity (COX-1; non-PL/C-treated): 20%
- inhibition of cholesterol absorption (plasma [3H] cholesterol) compared with controls and VP4 [1]: significantly outperforms both the controls and VP4
